What was measured:
Type in all cases: in vivo
[1] = tested on: adult bed bugs (Cimex lectularius); experiment: Direct spray knockdown of adult bed bugs; settings: for bed bug knockdown activity, in words: early time points; for bed bugs exhibiting knockdown, average count of 5 trials (of 10): 10% nootkatone, 0.1% BHT in isopropanol
Experimental: (§1) A direct spray formulation, containing 10% nootkatone (from Bedoukian Research, Inc., Product No. 800; Danbury, Conn.), 0.1% butylated hydroxytoluene (BHT) in isopropanol, stored at ambient temperature and humidity, was tested for efficacy for knockdown and mortality among adult bed bugs (Cimex lectularius). Adult bed bugs (ICR, Baltimore, Md.) used in this study were blood fed within 7 days of testing. The bed bugs were anesthetized with CO2 and five groups of ten bed bugs were transferred into 9 dram vials at least 2 hours prior to testing. Just prior to treatment, the bed bugs were transferred to 16 oz. paper solo cups with cloth glued to the bottom on the inside of the cup and a screened lid. Each replicate was then sprayed manually, using a 2-3 oz. pump sprayer, with 1 gram±0.1 grams of the 10% nootkatone formulation. Each replicate was sprayed separately from a vertical distance of 6 inches above the bed bugs. The spray bottle was weighed before and after treating each replicate to confirm the weight of the test sample dispensed. All spraying took place in a vented, stainless steel Peet Grady chamber (6×6×6 ft). […] Knockdown was defined as the inability of a bed bug to right itself when placed on its back. After the five minute time point, the bed bugs were transferred to recovery containers that hold 16 oz. paper solo cups equipped with screened lids. A further knockdown study took place at 15 minutes post treatment. Serving as control samples, five replicates of 10 adult bed bugs were treated with isopropyl alcohol alone and five replicates of 10 adult bed bugs were treated with water, following the protocol outlined above.
(§2) A direct spray formulation, containing 5% nootkatone (from Bedoukian Research, Inc., Product No. 800; Danbury, Conn.), 0.1% butylated hydroxytoluene (BHT) in acetone, stored at ambient temperature and humidity, was tested for efficacy for knockdown and mortality among adult bed bugs (Cimex lectularius) using the same procedure as described in Example 1 above. Five replicates of ten bed bugs were sprayed with 1.0 g±20% of a 5% nootkatone in acetone solution stabilized with 0.1% BHT. An additional five replicates were treated with 1.0 g±20% of tap water to serve as a control.

[2] = tested on: adult bed bugs (Cimex lectularius); experiment: Direct spray mortality of adult bed bugs; settings: for bed bug mortality, in words: within the 15 minute knockdown study; for Alive, Treatment (bed bug count, of 50) / Dead, Treatment (bed bug count, of 50) / Moribund, Treatment (bed bug count, of 50): 5% nootkatone, 0.1% BHT in acetone
Experimental: as §1
After the knockdown counts were complete, the bed bugs were maintained in treatment chambers, in the laboratory at ambient light, temperature, and humidity conditions. Mortality counts were made at 24 and 48 hours post treatment. […] Table 4 below provides the average mortality data for the five replicates of bed bugs treated with water, isopropanol alone, or with 10% nootkatone in isopropanol at 24 and 48 hours.
as §2
After the knockdown counts were complete, the bed bugs were maintained in treatment chambers, in the laboratory at ambient light, temperature, and humidity conditions. Mortality counts were made at 1, 2, 3, 4 and 5 days post treatment. […] Table 5 below provides the mortality data for the replicates of bed bugs treated with water (control) or with 5% nootkatone in acetone.

[3] = tested on: adult cat fleas (Ctenocephalides felis); experiment: Direct spray knockdown of adult cat fleas; settings: 10% nootkatone; for cat fleas knocked down, average count of 5 trials (of 10): 0.1% BHT in isopropanol
Experimental: (§3) A direct spray formulation, containing 10% nootkatone, 0.1% butylated hydroxytoluene (BHT) in isopropanol, stored at ambient temperature and humidity, was tested for efficacy for knockdown and mortality among adult cat fleas (Ctenocephalides felis). Five replicates of 10 adult cat fleas (El Labs Inc (Soquel, Calif.)) were emptied from 9 dram vials into 5 gallon HDPE Payliner® pail liners lined with paper towels. Each replicate was sprayed manually with 1 gram±0.1 grams of the 10% nootkatone formulation from the rim of the pail liner. The spray bottle was weighed before and after treating each replicate to confirm the weight of the test sample dispensed. Five control replicates of 10 adult cat fleas were treated with isopropyl alcohol, following the same protocol. The study provided a single treatment of 10% nootkatone formulation or isopropyl alcohol. All spraying took place in a vented, stainless steel Peet Grady chamber (6×6×6 ft).
The average weight of isopropanol and 10% nootkatone formulation applied to the five replicates was 1.0 g and 1.07 g, respectively. […] Knockdown was defined as the failure of the cat flea to jump even following exhalation of a technician into the pail liner.

[4] = tested on: adult cat fleas (Ctenocephalides felis); settings: 10% nootkatone in isopropanol, direct spray; 24 hours
Experimental: as §3
Following the knockdown studies, the payliners containing cat fleas were kept at ambient temperature and humidity in the laboratory. Mortality of cat fleas following isopropanol (control) and 10% nootkatone treatments was then recorded 24 hours after solution administration. Dead fleas were confirmed by probing the fleas or exhaling into the payliner to ensure lack of movement. […] Cat fleas that were able to jump were recorded as being alive. The number of moribund and dead fleas per replicate were added together for a total mortality count and divided by the number of fleas tested to derive percent mortality.

[5] = time 1 (head: Minutes; text: days post treatment)
[6] = time 2 (head: Minutes; text: days post treatment)
[7] = time 3 (head: Minutes; text: days post treatment)
[8] = time 4 (head: Minutes; text: days post treatment)
[9] = time 5 (head: Minutes; text: days post treatment)
[10] = 10% nootkatone in isopropanol, 24 hr post treatment
[11] = 10% nootkatone in isopropanol, 48 hr post treatment

## C=C(C)[C@@H]1CCC2=CC(=O)C[C@@H](C)[C@]2(C)C1 [nootkatone, 4,4a,5,6,7,8-hexahydro-6-isopropenyl-4,4a-dimethyl-2(3H)-naphtalenone]
[1]; 5% nootkatone in acetone, 15 minutes
  bed bug knockdown compared with control, in words: no greater effect on bed bug knockdown than that observed for the control
[1]; 5% nootkatone in acetone
  bed bug knockdown activity, in words: some knockdown activity
[1]; 10% nootkatone in isopropanol, 15 minutes
  bed bug knockdown compared with isopropanol alone, in words: no greater effect on bed bug knockdown than that observed for isopropanol alone
[1]; 10% nootkatone in isopropanol
  bed bug knockdown activity, in words: some knockdown activity
[1]; 0.5 min post treatment
  bed bugs exhibiting knockdown, average count of 5 trials (of 10): 1.6
[1]; 1 min post treatment
  bed bugs exhibiting knockdown, average count of 5 trials (of 10): 2.6
[1]; 2 min post treatment
  bed bugs exhibiting knockdown, average count of 5 trials (of 10): 4.6
[1]; 3 min post treatment
  bed bugs exhibiting knockdown, average count of 5 trials (of 10): 5
[1]; 4 min post treatment
  bed bugs exhibiting knockdown, average count of 5 trials (of 10): 4.6
[1]; 5 min post treatment
  bed bugs exhibiting knockdown, average count of 5 trials (of 10): 4.8
[1]; 15 min post treatment
  bed bugs exhibiting knockdown, average count of 5 trials (of 10): 4.4
[2]; 5% nootkatone in acetone, 5 days
  bed bug mortality compared with control, in words: did not kill bed bugs after 5 days above mortality levels observed for the control
[2]; 5% nootkatone in acetone
  bed bug mortality, in words: No mortality was observed
[2]; [5]
  Alive, Treatment (bed bug count, of 50): 50
  Dead, Treatment (bed bug count, of 50): 0
  Moribund, Treatment (bed bug count, of 50): 0
[2]; [6]
  Alive, Treatment (bed bug count, of 50): 49
  Dead, Treatment (bed bug count, of 50): 1
  Moribund, Treatment (bed bug count, of 50): 0
[2]; [7]
  Alive, Treatment (bed bug count, of 50): 48
  Dead, Treatment (bed bug count, of 50): 1
  Moribund, Treatment (bed bug count, of 50): 1
[2]; [8]
  Alive, Treatment (bed bug count, of 50): 45
  Dead, Treatment (bed bug count, of 50): 2
  Moribund, Treatment (bed bug count, of 50): 3
[2]; [9]
  Alive, Treatment (bed bug count, of 50): 42
  Dead, Treatment (bed bug count, of 50): 5
  Moribund, Treatment (bed bug count, of 50): 3
[2]; 10% nootkatone in isopropanol, 24 or 48 hours
  bed bug mortality compared with isopropanol alone, in words: did not kill bed bugs after 24 or 48 hours above mortality levels observed for isopropanol alone
[2]; [10]
  Alive, average bed bug count of 5 trials (of 10): 6.4
  Dead, average bed bug count of 5 trials (of 10): 3.6
  Moribund, average bed bug count of 5 trials (of 10): 0
[2]; [11]
  Alive, average bed bug count of 5 trials (of 10): 5.2
  Dead, average bed bug count of 5 trials (of 10): 4.8
  Moribund, average bed bug count of 5 trials (of 10): 0
[2]; 10% nootkatone in isopropanol
  bed bug mortality, in words: No mortality was observed
[3]
  cat flea knockdown efficacy, in words: not effective in knocking down cat fleas
[3]; 0.5 min
  cat fleas knocked down, average count of 5 trials (of 10): 0.2
[3]; 1 min
  cat fleas knocked down, average count of 5 trials (of 10): 0.2
[3]; 2 min
  cat fleas knocked down, average count of 5 trials (of 10): 0.4
[3]; 3 min
  cat fleas knocked down, average count of 5 trials (of 10): 0
[3]; 4 min
  cat fleas knocked down, average count of 5 trials (of 10): 0.2
[3]; 5 min
  cat fleas knocked down, average count of 5 trials (of 10): 0.4
[3]; 15 min
  cat fleas knocked down, average count of 5 trials (of 10): 0
[3]; 15 minutes
  fleas knocked down, in words: no fleas were knocked down
[3]; within the first 5 minutes
  fleas knocked down: no more than 4%
[4]
  Alive, average cat flea count of 5 trials (of 10): 0
  Dead, average cat flea count of 5 trials (of 10): 9.6
  Moribund, average cat flea count of 5 trials (of 10): 0.4
  Mortality (moribund plus dead) of cat fleas: 100%

From US20150250166A1, “NOOTKATONE AS AN INSECTICIDE AND INSECT REPELLENT” (ALLYLIX, INC., priority 2012, published 2015)
